Where a name gives a salt, the structure may show the parent alone.
Tested on: SARS2-S-mediated membrane fusion
Format: cell-based, SARS-CoV-2

Compound: CC(CN(C)C)CN1c2ccccc2Sc2ccccc21 (centres unmarked) [Alimemazine tartrate]
- SARS2-S-mediated membrane fusion (average number of nuclei in each syncytium): reduced the formation of syncytia
- membrane fusion by mutant SARS2-S (Δ69–70, N501Y, E484K, D614G): reduced the formation of syncytia

Reference: PMC9721373 (Antiviral Research, 2022)
